According to patent US4034102A, “4-Substituted-1,3-dithiolan-2-ylidene malonates and pharmaceutical compositions containing the same” (Nihon Nohyaku Co. Ltd., priority 1975, dated 1977):

Tests used:
[1] = test system: CCl4-induced liver damage; assay: Protection against CCl4-induced Hepatotoxicity; format: in vivo, mice (four-week-old male, dd strain); settings: 6 h before CCl4 (0.05 ml/kg oral), 24 h after CCl4, average of 5 to 6 mice; for Liver damage index: 250 mg/kg oral in olive oil, score 0 normal, 2 slightly recognized, 4 clearly observable damage, 6 heavy damage, CCl4 alone 5.2, control 0; for p-GPT (plasma glutamic-pyruvic transaminase activity): 250 mg/kg oral, values over 1,000 regarded as 1,000, CCl4 alone >1000, control 35
Source text: Carbon tetrachloride (CCl4) administration induces centrilobular necrosis of the liver associated with loss of diphosphopyridine nucleotide, hepatic glycogen, coenzyme A and increase in neutral fat. Release of several enzymes from the hepatocytes, and increase of enzyme activities in the plasma are recognized as the result of the damage of the liver. A suitable means for evaluating the degree of damage induced by CCl4 or the degree of protection afforded by drugs is to study the plasma glutamic-pyruvic transaminase (p-GPT) activity.
Methods: The test compounds were dissolved or suspended in olive oil and administered orally at the dose of 250 mg/kg to the mice (Four-week-old male mice-dd strain). After 6 hours, CCl4 was administered orally (0.05 ml/kg as olive oil solution). Animals were killed 24 hours after CCl4 administration, and the liver was grossly observed. The plasma was obtained by centrifugation. Activities of p-GPT were determined by the method of Reitman and Frankels and expressed in Karmen units. Score for liver damage index was as follows:
Each figure indicates average of 5 to 6 mice. Values of p-GPT over 1,000 Karmen unit regarded as 1,000 for calculation of average for convenience.

[2] = in vivo; settings: mouse, oral, male mice, read-out: acute oral toxicity LD50
Experimental: For example, the LD50 value of the compound 12 is more than 3,000 mg/kg. Further, these compounds have no detrimental effects on test animals administered therewith, so far as the doses thereof are within an ordinary administration range.

| SMILES | Liver damage index [1] | p-GPT (plasma glutamic-pyruvic transaminase activity) [1] [Karmen units] | LD50 [2] [mg/kg] |
| --- | --- | --- | --- |
| CCOC(=O)C(C(=O)OCC)=C1SCC(OC(=O)CCCC(=O)O)S1 (stereo not shown) [Compound 3] | 1.2 | 108 |  |
| CCCOC(=O)C(C(=O)OCCC)=C1SCC(OC(=O)CCC(=O)O)S1 (stereo not shown) [Compound 8, Succinic acid semi-ester of di-n-propyl 4-hydroxy-1,3-dithiolan-2-ylidene malonate] | 0.6 | 77 |  |
| CC(C)OC(=O)C(C(=O)OC(C)C)=C1SCC(OC(=O)C2CC=CCC2C(=O)O)S1 (stereo not shown) [Compound 18] | 2.6 | 565 |  |
| NC(=O)CCCCC1CCSS1 (stereo not shown) [Thioctic acid amide, reference compound] | 4.8 | 763 |  |
| CC(C)OC(=O)C(C(=O)OC(C)C)=C1SCC(OC(=O)C2=C(C(=O)O)CCCC2)S1 (stereo not shown) [Compound 17] | 1.8 | 286 |  |
| CC(C)OC(=O)C(C(=O)OC(C)C)=C1SCC(OC(=O)CCC(=O)O)S1 (stereo not shown) [Compound 13] | 0.6 | 44 |  |
| CCOC(=O)C(C(=O)OCC)=C1SCC(OC(=O)C2=C(C(=O)O)CCCC2)S1 (stereo not shown) [Compound 7] | 2.2 | 382 |  |
| CC(C)OC(=O)C(C(=O)OC(C)C)=C1SCC(OC(=O)/C=C\C(=O)O)S1 (stereo not shown) [Compound 15] | 0.4 | 62 |  |
| CC(C)OC(=O)C(C(=O)OC(C)C)=C1SCC(OC(=O)CN2CCOCC2)S1 (stereo not shown) [Compound 21] | 1.4 | 380 |  |
| CCCN(CCC)CC(=O)OC1CSC(=C(C(=O)OCC)C(=O)OCC)S1 (stereo not shown) [Compound 6] | 1.6 | 250 |  |
| CC(C)OC(=O)C(C(=O)OC(C)C)=C1SCC(OC(=O)c2ccccc2C(=O)O)S1 (stereo not shown) [Compound 16, phthalic acid semi-ester of diisopropyl 4-hydroxy-1,3-dithiolan-2-ylidene malonate] | 3.2 | 482 |  |
| CC(C)OC(=O)C(C(=O)OC(C)C)=C1SCC(OC(=O)CCC(=O)O)S1 (stereo not shown) [Compound 12] | 0.2 | 33 | > 3000 |
| CC(C)OC(=O)C(C(=O)OC(C)C)=C1SCC(OC(=O)CCl)S1 (stereo not shown) [Compound 9, diisopropyl 4-chloroacetoxy-1,3-dithiolan-2-ylidene malonate] | 0.6 | 65 |  |
| COc1ccc(-c2cc(=S)ss2)cc1 [Anethol trithion, reference compound] | 1.6 | 58 |  |
| CCN(CC)CC(=O)OC1CSC(=C(C(=O)OC(C)C)C(=O)OC(C)C)S1 (stereo not shown) [Compound 19, diisopropyl 4-diethylaminoacetoxy-1,3-dithiolan-2-ylidene malonate] | 1.2 | 288 |  |
| CCOC(=O)C(C(=O)OCC)=C1SCC(OC(=O)CN2CCOCC2)S1 (stereo not shown) [Compound 23] | 0.8 | 122 |  |
| CCOC(=O)C(C(=O)OCC)=C1SCC(OC(=O)CCC(=O)O)S1 (stereo not shown) [Compound 2, Succinic acid semi-ester of diethyl 4-hydroxy-1,3-dithiolan-2-ylidene malonate] | 0.6 | 43 |  |
| CC(C)OC(=O)C(C(=O)OC(C)C)=C1SCC(OC(=O)c2ccccc2)S1 (stereo not shown) [Compound 10] | 1.7 | 520 |  |
| CCOC(=O)C(C(=O)OCC)=C1SCC(OC(=O)CN(CC)CC)S1 (stereo not shown) [Compound 5, Diethyl 4-diethylaminoacetoxy-1,3-dithiolan-2-ylidene malonate] | 1.6 | 232 |  |
| CCOC(=O)C(C(=O)OCC)=C1SCC(OC(=O)CCl)S1 (stereo not shown) [Compound 1] | 1.0 | 102 |  |
| CC(C)OC(=O)C(C(=O)OC(C)C)=C1SCC(OC(=O)CCC(=O)O)S1 (stereo not shown) [Compound 11, succinic acid semi-ester of diisopropyl 4-hydroxy-1,3-dithiolan-2-ylidene malonate] | 0.2 | 54 |  |
| CC(C)OC(=O)C(C(=O)OC(C)C)=C1SCC(OC(=O)CCCC(=O)O)S1 (stereo not shown) [Compound 14] | 0.6 | 102 |  |
| CCOC(=O)C(C(=O)OCC)=C1SCC(OC(=O)CCC(=O)O)S1 (stereo not shown) [Compound 4] | 0.2 | 45 |  |
| CCCCOC(=O)C(C(=O)OCCCC)=C1SCC(OC(=O)CN2CCOCC2)S1 (stereo not shown) [Compound 22] | 0.8 | 134 |  |
